Source: US20070043013A1, “1,3 Disubstituted azetidine derivatives for use as ccr-3 receptor antagonists in the treatment of inflammatory and allergic diseases” (priority 2003, published 2007)

Assays:
histamine H1 = histamine H1 (Homo sapiens, UniProt P35367); test: histamine H1 antagonism
[1] = target: alpha-1 adrenergic receptor; test: alpha-1 adrenergic receptor radioligand binding assay ([125I]-HEAT, rat cerebral cortex membranes); conditions: radioligand used at 40 pM
Protocol: The inhibitory properties of agents of the invention on binding of the alpha-1 adrenergic receptor can be determined in the following assay:
Cerebral cortices from male Sprague-Dawley rats (175-200 g) are dissected and homogenised in 10 volumes of ice cold 0.32 M sucrose (containing 1 mM MgCl2 dihydrate and 1 mM K2HPO4) with a glass/Teflon homogeniser. The membranes are centrifuged at 1000×g for 15 miN, the pellet discarded and the centrifugation repeated. The supernatants are pooled and centrifuged at 18,000×g for 15 minutes. The pellet is osmotically shocked in 10 volumes of water and kept on ice for 30 minutes. The suspension is centrifuged at 39,000×g for 20 minutes, resuspended in Krebs-Henseleit buffer pH 7.4 (1.17 mM MgS04 anhydrous, 4.69 mM KCl, 0.7 mM K2HPO4 anhydrous, 0.11 M NaCl, 11 mM D-glucose and 25 mM NaHCO3) containing 20 mM Tris, and kept for 2 days at −20° C. The membranes are then thawed at 20-23° C., washed three times with Krebs-Henseleit buffer by centrifugation at 18,000×g for 15 minutes, left overnight at 4° C. and washed again three times. […]
The resulting membranes are subjected to a radioligand binding assay. […] Following drying of the plates for 3 h. at 50° C., 40 μl of Microscint 20 is added to each well, the plates incubated at room temperature for a further 20 minutes and the retained radioactivity quantified in a Packard TopCount NXT™ scintillation counter. […]

Sequence of histamine H1 (P35367 whole entry): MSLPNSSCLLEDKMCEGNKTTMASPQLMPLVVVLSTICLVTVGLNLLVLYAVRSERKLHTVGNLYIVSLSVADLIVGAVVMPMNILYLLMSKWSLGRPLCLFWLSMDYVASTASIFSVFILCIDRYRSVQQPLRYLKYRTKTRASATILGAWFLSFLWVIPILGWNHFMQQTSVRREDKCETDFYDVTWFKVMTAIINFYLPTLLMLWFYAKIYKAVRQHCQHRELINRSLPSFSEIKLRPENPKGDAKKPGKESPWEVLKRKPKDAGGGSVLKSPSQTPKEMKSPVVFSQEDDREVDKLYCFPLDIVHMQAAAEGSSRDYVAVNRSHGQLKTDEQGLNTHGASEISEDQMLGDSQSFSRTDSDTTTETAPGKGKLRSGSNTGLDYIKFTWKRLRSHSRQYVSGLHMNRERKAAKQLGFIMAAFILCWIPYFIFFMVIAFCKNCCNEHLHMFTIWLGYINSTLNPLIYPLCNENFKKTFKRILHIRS

| SMILES | histamine H1 antagonist activity (histamine H1) | Kd [1] |
| --- | --- | --- |
| CCc1nnc(NC(=O)N[C@@H]2CCCC[C@@H]2CN2CC(Oc3ccc(Cl)cc3)C2)s1 (racemic) [Example 31, (+/−)1-{(1R,2R)-2-[3-(4-Chloro-phenoxy)-azetidin-1-yl-methyl]-cyclohexyl}-3-(5-ethyl-[1,3,4]thiadiazol-2-yl)-urea] | histamine H1 antagonists |  |
| CCc1nnc(NC(=O)N[C@H](CO)CCN2CC(Sc3ccc(Cl)cc3)C2)s1 [Example 19, 1-{(S)-3-[3-(4-Chloro-phenylsulfanyl)-azetidin-1-yl]-1-hydroxymethyl-propyl}-3-(5-ethyl-[1,3,4]thiadiazol-2-yl)-urea] | histamine H1 antagonists |  |
| O=C1c2ccccc2CCC1CNCCc1ccc(O)c(I)c1 (stereo not drawn) [[^125I]-HEAT] |  | 0.0589 ± 0.0187 nM |
